As a reminder, the IC50 is the concentration needed to halve the response being measured. A higher IC50 goes with weaker potency in that assay.

A short description of the test: Inhibition of MCP1-induced chemotaxis in U937 cells overexpressing CCR2.
As for `Fc1cccc(F)c1CN1CCC(Nc2cccc3cnccc23)C1` (stereo unspecified) [N-(1-(2,6-difluorobenzyl)pyrrolidin-3-yl)isoquinolin-5-amine], the IC50 is 10 µM.
In turn, `Clc1ccccc1CN1CCC(Nc2cccc3cnccc23)C1` (stereo unspecified) [N-[1-(2-chlorobenzyl)-3-pyrrolidyl]-N-(5-isoquinolyl)amine] returned an IC50 of 17 µM.
`Nc1ccc(CN2CCC(Nc3cccc4cnccc34)C2)cc1` (stereo unspecified) [N-(1-(4-aminobenzyl)pyrrolidin-3-yl)isoquinolin-5-amine] registered an IC50 of 15 µM.
To `Nc1cccc(CN2CC[C@@H](Nc3cccc4cnccc34)C2)c1` [(3R)-N-[1-(3-aminobenzyl)-3-pyrrolidyl]-N-(5-isoquinolyl)amine] belongs 1 µM; to `Fc1ccc(CN2CCC(Nc3cccc4cnccc34)C2)cc1` (stereo unspecified) [N-[1-(4-fluorobenzyl)-3-pyrrolidyl]-N-(5-isoquinolyl)amine], 22 µM; to `Nc1cccc(CN2CC[C@H](Nc3cccc4cnccc34)C2)c1` [(3S)-N-[1-(3-aminobenzyl)-3-pyrrolidyl]-N-(5-isoquinolyl)amine], 30 µM.
The compound `Nc1ccccc1CN1CCC(Nc2cccc3cnccc23)C1` (stereo unspecified) [N-[1-(2-aminobenzyl)-3-pyrrolidyl]-N-(5-isoquinolyl)amine] gave an IC50 of 14 µM.
In turn, `Nc1cccc(CN2CCC(Nc3cccc4cnccc34)C2)c1` (stereo unspecified) [N-(1-(3-aminobenzyl)pyrrolidin-3-yl)isoquinolin-5-amine] had an IC50 of 20 µM.
Take `Clc1ccc(CN2CCCC(Nc3cccc4cnccc34)C2)cc1` (stereo unspecified) [N-(1-(4-chlorobenzyl)piperidin-3-yl)isoquinolin-5-amine]: 23 µM corresponded to half-maximal inhibition (IC50).
Take `Clc1cccc(CN2CCC(Nc3cccc4cnccc34)C2)c1` (stereo unspecified) [N-(1-(3-chlorobenzyl)pyrrolidin-3-yl)isoquinolin-5-amine]: it took 14 µM to reach half-maximal inhibition (IC50).
Consider `Clc1ccc(CN2CCC(Nc3cccc4cnccc34)C2)cc1` (stereo unspecified) [N-(1-(4-chlorobenzyl)pyrrolidin-3-yl)isoquinolin-5-amine], for which it took 11 µM to reach half-maximal inhibition (IC50).

These data come from BindingDB's records for doi:10.1016/j.bmc.2006.10.028 (Kirin Brewery, 2006).
